Reference: publication PMC6423188, “HYNIC and DOMA conjugated radiolabeled bombesin analogs as receptor-targeted probes for scintigraphic detection of breast tumor” (EJNMMI Research, 2019)
Where a SMILES comes first, the peptide text is derived from it.

Experiments:
MDA-MB-231 cells = experiment: Western blot analysis; format: cell-based, human; conditions: 24 h, BN3, BN4 7.5 and 5 pM, BNS 7.5 pM
Excerpt: After washing in ice-cold PBS, proteins were extracted from cells with lysis buffer containing 100 mmol/L Tris-HCl, pH 8.0, 150 mmol/L NaCl, 1% sodium dodecyl sulfate, 10% glycerol, 1% Triton X, 5 mmol/L ethylenediaminetetraacetic acid, 1 mmol/L phenyl methyl sulfonyl fluoride, 10 mmol/L sodium fluoride, 1 mmol/L sodium orthovanadate, 1 mmol/L-glycerophosphate, and protease inhibitor cocktail tablets (Roche, Switzerland). Total proteins from cell were also extracted by using standard procedure. Protein concentrations were determined by Bradford reagent (BioRad, USA). Extracted proteins were separated by sodium dodecyl sulphate polyacrylamide gel electrophoresis and transferred to polyvinylidene fluoride (PVDF) membranes. Membranes blocking were done by 5% nonfat milk in Tris-buffered saline containing 0.1% polysorbate-20 and incubated with primary antibodies GRPR (Abcam, USA), VEGF, PCNA, Phospho-p38, and HIF-1α (Santa Cruz Biotechnology) for overnight at 4 °C. β-actin antibodies (Millipore) were used to confirm equal protein loading. Detection of primary antibodies was done by alkaline phosphatase conjugated secondary antibodies (1:5000 dilutions) and the detection was done by colorimetry using NBT-BCIP as substrate (Sigma-Aldrich). Detection of GRPR primary antibody was done by horseradish peroxidase conjugated secondary antibodies. The level of β-actin was used as a loading control and was not altered under any of the condition used.

GRPR = target: T1, GRPR (Homo sapiens, UniProt P30550); experiment: In vitro receptor binding assay, competition with 99mTc-BNS; conditions: unlabeled analogs, MDA-MB-231 cells/membranes, radioligand 99mTc-BNS, 1 h, 37 °C
T1 construct: endogenous in cells; host or cells: MDA-MB-231 human breast cancer cells (from NCCS, Pune)
Procedure: One day prior to the assay, cells at the confluence were placed in 12-well plates. […] Inhibitory assays were done on GRPR-expressing MDA-MB-231 human breast cancer cells using the standard procedure with modifications. […] After 1-h incubation, cells were washed twice with cold PBS. Receptor bound radioactivity was recovered by solubilizing the cells with 400 μL 1 N NaOH at 37 °C. Binding activities were evaluated in the gamma counter. IC50 (the best-fit 50% inhibitory concentration) values were determined using nonlinear regression.
It may be mentioned that non-radioactive Re complex can be used in place of its unlabeled ligand to determine the binding affinity after complexation reaction. This is being proposed to use the non-radioactive Re complex in place of its unlabeled ligand to determine the binding affinity after complexation in future studies.

MDA-MB-231 tumor = experiment: Angiogenic and proliferative markers in tumor (IHC); format: in vivo, mouse; conditions: tumor-bearing mice treated i.v. every day for 2 weeks
Procedure: Tumor-bearing mice were intravenously treated with BN4 peptide at every day for 2 weeks as BN4 has shown the highest affinity and stability to GRP with compare to other analogs. Mice were sacrificed and tumor tissue sections were used for immunohistochemical (IHC) analyses. IHC was performed by the aforementioned methods with the primary antibodies such as anti-CD31 and anti-Ki67 (Abcam, Cambridge, Massachusetts, USA) to determine the expression of angiogenic and proliferative markers in the tumor.

T1 sequence (P30550 whole entry): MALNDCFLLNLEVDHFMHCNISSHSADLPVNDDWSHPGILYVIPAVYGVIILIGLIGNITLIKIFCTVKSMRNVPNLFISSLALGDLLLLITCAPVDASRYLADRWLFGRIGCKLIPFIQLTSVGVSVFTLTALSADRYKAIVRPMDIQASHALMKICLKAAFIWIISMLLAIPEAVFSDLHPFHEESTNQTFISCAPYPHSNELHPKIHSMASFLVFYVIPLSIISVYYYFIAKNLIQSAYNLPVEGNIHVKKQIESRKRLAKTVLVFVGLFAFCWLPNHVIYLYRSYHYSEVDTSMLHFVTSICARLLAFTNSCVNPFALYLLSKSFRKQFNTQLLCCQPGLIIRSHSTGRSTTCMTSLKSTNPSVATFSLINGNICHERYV

CCCC[C@H](NC(=O)[C@@H](Cc1ccc(O)cc1)NC(=O)[C@H](Cc1c[nH]cn1)NC(=O)[C@@H]1CCCN1C(=O)[C@@H](NC(=O)[C@H](C)NC(=O)[C@H](Cc1c[nH]c2ccccc12)NC(=O)[C@H](CCC(N)=O)NC(=O)CCCNC(=O)CN1CCNCCNCCNCC1)C(C)C)C(N)=O [BN4, DOMA-GABA-[Pro^5-D-Tyr^13Nle^14]-BN(7-14)-NH2] (HELM PEPTIDE1{[O=C(CN1CCNCCNCCNCC1)[*:2]].[O=C(CCCN[*:1])[*:2]].Q.W.A.V.P.H.[dY].[Nle].[am]}$$$$V2.0)
level of GRPR (Western blot) (MDA-MB-231 cells): significantly increased level of GRPR
IC50 (GRPR): 3.15 nM
expression of CD31 and Ki67 in tumor sections (IHC) (MDA-MB-231 tumor): enhanced expression of CD31, Ki67
